Laboratory results published in article PMC11855827, “High-Throughput Screening of Five Compound Libraries for Anthelmintic Activity and Toxicity Leads to the Discovery of Two Flavonoid Compounds” (International Journal of Molecular Sciences, 2025).
“And” between values parts separate entries of the source, which are not always exact repeats. Equal values may be shown once. Where a name gives a salt, the structure may show the parent alone.

System: C. elegans
Conditions: Table S2, C. elegans SS assay, 110 μM, averages of 4 data points

| Compound | Percentage of motility inhibition 0 h | Percentage of motility inhibition 24 h |
| --- | --- | --- |
| O=c1cc(-c2ccc(O)c(O)c2)oc2cc(O)cc(O[C@@H]3O[C@H](CO)[C@@H](O)[C@H](O)[C@H]3O)c12 [Luteolin 5‐O‐glucoside] | 8% | 0% |
| CCC[C@@H]1C[C@@H](C(=O)N[C@@H]([C@H]2O[C@H](SC)[C@H](O)[C@@H](O)[C@H]2O)[C@H](C)Cl)N(C)C1.Cl [Clindamycin (hydrochloride)] | 28% | 3% |
| COC1=CC(=O)OC(/C=C/c2ccccc2)C1 (single isomer, unassigned; (+)) [(+)-Kavain] | 5% | 13% |
| CC(C)=CCC[C@@](C)(O)[C@H]1CC[C@]2(C)[C@@H]1[C@H](O)C[C@@H]1[C@@]3(C)CC[C@H](O)C(C)(C)[C@@H]3[C@@H](O)C[C@]12C [20(R)-Protopanaxatriol] | 0% | 21% |
| COc1cc2c3cc1Oc1c(OC)c(OC)cc4c1[C@@H](Cc1ccc(O)c(c1)Oc1ccc(cc1)C[C@@H]3N(C)CC2)N(C)CC4 [Berbamine (dihydrochloride)] | 33% and 53% | 11% and 15% |
| CC(C)(O)CCc1c(O)cc(O)c2c(=O)c(O)c(-c3ccc(O)cc3)oc12 [Noricaritin] | 42% | 5% |
| CC(=O)Oc1ccc([C@@H]2CC(=O)c3c(OC(C)=O)cc(OC(C)=O)cc3O2)cc1 [Naringenin triacetate] | 0% | 14% |
| O=c1c(O[C@@H]2O[C@H](CO)[C@@H](O)[C@H](O)[C@H]2O[C@@H]2OC[C@@H](O)[C@H](O)[C@H]2O)c(-c2ccc(O)cc2)oc2cc(O)cc(O)c12 [Leucoside] | 9% | 8% |
| CC1(C)CC[C@]2(C(=O)O)CC[C@]3(C)C(=CC[C@@H]4[C@@]5(C)CC[C@H](O[C@@H]6O[C@H](C(=O)O)[C@@H](O)[C@H](O[C@@H]7OC[C@@H](O)[C@H](O)[C@H]7O)[C@H]6O)C(C)(C)[C@@H]5CC[C@]43C)[C@@H]2C1 [Momordin Ic] | 12% | 4% |
| CO[C@H]1c2cc(C(C)C)c(O)c(O)c2[C@@]23CCCC(C)(C)[C@@H]2[C@@H]1OC3=O [7-Methoxyrosmanol] | 12% | 18% |
| Harpagide | 9% | 13% |
| Nc1nc(/C(=C/CC(=O)O)C(=O)N[C@@H]2C(=O)N3C(C(=O)O)=CCS[C@H]23)cs1.O.O [Ceftibuten (dihydrate)] | 19% | 5% |
| CC(C)=CCN=C(N)N.Cl [Galegine (hydrochloride)] | 0% | 0% |
| O=c1cc(-c2ccccc2)oc2cc(O[C@@H]3O[C@H](CO[C@@H]4O[C@H](CO)[C@@H](O)[C@H](O)[C@H]4O)[C@@H](O)[C@H](O)[C@H]3O)c(O)c(O)c12 [Oroxin B] | 0% | 0% |
| NC(N)=NCCCC(N)C(=O)O (racemic) [DL-Arginine] | 4% | 0% |
| CC1(C)[C@H]2O[C@H]2[C@H]2[C@](C)(O)[C@@H]3CC[C@@H]4[C@@H](O)[C@@]3(C[C@@H](O)[C@@]21O)C[C@@]4(C)O [Rhodojaponin III] | 5% | 2% |
| Cc1nnc(C(=O)NC(C)(C)c2nc(C(=O)NCc3ccc(F)cc3)c([O-])c(=O)n2C)o1.[K+] [Raltegravir (potassium salt)] | 3% | 4% |
| CC[C@](C)(C#N)O[C@@H]1O[C@H](CO)[C@@H](O)[C@H](O)[C@H]1O [Lotaustralin] | 11% | 20% |
| Gypsogenin-3-O-glucuronide | 50% | 10% |
| C[C@@H]1O[C@@H](OC[C@H]2O[C@@H](Oc3cc(O)c4c(=O)cc(-c5ccc(O)cc5)oc4c3)[C@H](O[C@@H]3O[C@@H](C)[C@H](O)[C@@H](O)[C@H]3O)[C@@H](O)[C@@H]2O)[C@H](O)[C@H](O)[C@H]1O [Ligustroflavone] | 10% | 8% |
| C=C1C(=O)O[C@@H]2[C@H]3C(CO)=CC(=O)C3=C(C)C[C@H](OC(=O)Cc3ccc(O)cc3)[C@@H]12 [Lactupicrin] | 7% | 25% |
| C[C@H]1O[C@@H](O[C@H]2CC[C@@]3(C)[C@@H](CC[C@]4(C)[C@@H]3C=CC3=C5CC(C)(C)CC[C@]5(CO)[C@H](O)C[C@]34C)[C@]2(C)CO)[C@H](O)[C@@H](O[C@@H]2O[C@H](CO)[C@@H](O)[C@H](O)[C@H]2O)[C@H]1O [Saikosaponin B2] | 19% | 11% |
| Xanthopterin (hydrate) | 5% | 0% |
| COc1ccc2[nH]cc(CCO)c2c1 [5‐Methoxytryptophol] | 25% | 7% |
| CC1(C)CC[C@]2(C(=O)O[C@@H]3O[C@H](CO)[C@@H](O)[C@H](O)[C@H]3O)CC[C@]3(C)C(=CC[C@@H]4[C@@]5(C)CC[C@H](O[C@@H]6O[C@H](C(=O)O)[C@@H](O)[C@H](O)[C@H]6O[C@@H]6O[C@H](CO)[C@@H](O)[C@H](O)[C@H]6O)C(C)(C)[C@@H]5CC[C@]43C)[C@@H]2C1 [Ginsenoside Ro] | 1% | 0% |
| CC(C)=CCC[C@@](C)(O)[C@H]1CC[C@]2(C)[C@@H]1[C@H](O)C[C@@H]1[C@@]3(C)CC[C@H](O[C@@H]4O[C@H](CO)[C@@H](O)[C@H](O)[C@H]4O[C@@H]4O[C@H](CO)[C@@H](O)[C@H](O)[C@H]4O)C(C)(C)[C@@H]3CC[C@]12C [(20R)-Ginsenoside Rg3] | 22% | 15% |
| CN[C@H](CC(C)C)C(=O)N[C@H]1C(=O)N[C@@H](CC(N)=O)C(=O)N[C@H]2C(=O)N[C@H]3C(=O)N[C@H](C(=O)N[C@H](C(=O)O)c4cc(O)cc(O)c4-c4cc3ccc4O)[C@H](O[C@H]3C[C@](C)(N)[C@@H](O)[C@H](C)O3)c3ccc(c(Cl)c3)Oc3cc2cc(c3O[C@@H]2O[C@H](CO)[C@@H](O)[C@H](O)[C@H]2O[C@H]2C[C@](C)(NCc3ccc(-c4ccc(Cl)cc4)cc3)[C@@H](O)[C@H](C)O2)Oc2ccc(cc2Cl)[C@H]1O.O=P(O)(O)O.O=P(O)(O)O [Oritavancin (diphosphate)] | 34% | 8% |
| CN1C[C@H](O)C[C@H]1C(=O)O [4‐Hydroxyhygric acid] | 21% | 0% |
| C=CC/C(=N/OS(=O)(=O)[O-])S[C@@H]1OC(CO)[C@@H](O)C(O)C1O.[K+] (stereo partly drawn) [Sinigrin] | 0% | 0% |
| Ginkgolide J | 0% | 25% |
